Measured values published in patent US4442044A, “Process for preparing monoesters and diesters of N-alkyl substituted amino methyl phosphonic acid” (priority 1983, dated 1984).

What was measured:
Test in all cases: post-emergent herbicidal activity, greenhouse
Format in all cases: in vivo
Sugar Beet = conditions: Table II
Outline: (§1)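 Seeds or propagules sown in compacted top soil, grown 2–3 weeks in greenhouse, then sprayed with compound solution/suspension containing ~0.4% emulsifier at tabulated rates. Injury scored visually versus untreated controls at ~2 and 4 weeks after treatment, expressed as a herbicidal activity index.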

Downy Brome = tested on: Downy Brome
Outline: as §1

Quackgrass = conditions: Table I, 4 WAT
Outline: as §1

Sorghum = conditions: Table II
Outline: as §1

Yellow Nutsedge = conditions: Table I, 4 WAT
Outline: as §1

Canada Thistle = conditions: Table I, 4 WAT
Outline: as §1

Rice = conditions: Table II
Outline: as §1

Johnsongrass = conditions: Table I, 4 WAT
Outline: as §1

Cocklebur = tested on: Cocklebur
Outline: as §1

Velvetleaf = tested on: Velvetleaf
Outline: as §1

Wheat = conditions: Table II
Outline: as §1

Wild Buckwheat = conditions: Table II
Outline: as §1

Barnyardgrass = tested on: Barnyardgrass
Outline: as §1

Panicum Spp = conditions: Table II
Outline: as §1

Hemp Sesbania = conditions: Table II
Outline: as §1

Morningglory = tested on: Morningglory
Outline: as §1

Smartweed = tested on: Smartweed
Outline: as §1

Crabgrass = conditions: Table II, 4 WAT
Outline: as §1

Lambsquarters = tested on: Lambsquarters
Outline: as §1

Soybean = conditions: Table II
Outline: as §1

Measured: post-emergent herbicidal activity index

CCOC(=O)CNCP(=O)(O)OCC(Cl)(Cl)Cl [Example 27, glycine, N-[[hydroxy(2,2,2-trichloroethoxy)-phosphinyl]methyl]-, ethyl ester]
1 (25-49% control): Quackgrass; 5.6 kg/h | Quackgrass; 11.2 kg/h | Canada Thistle; 5.6 kg/h | Velvetleaf; Table I, 4 WAT, 5.6 kg/h | Velvetleaf; Table II, 4 WAT, 0.28 kg/h | Velvetleaf; Table II, 4 WAT, 1.12 kg/h | Velvetleaf; Table II, 4 WAT, 5.6 kg/h | Hemp Sesbania; 4 WAT, 0.28 kg/h | Lambsquarters; Table II, 4 WAT, 0.28 kg/h
3 (75-99% control): Sugar Beet; 4 WAT, 5.6 kg/h | Downy Brome; Table II, 4 WAT, 0.28 kg/h | Downy Brome; Table II, 4 WAT, 1.12 kg/h | Downy Brome; Table II, 4 WAT, 5.6 kg/h | Sorghum; 4 WAT, 5.6 kg/h | Rice; 4 WAT, 0.28 kg/h | Rice; 4 WAT, 1.12 kg/h | Rice; 4 WAT, 5.6 kg/h | Cocklebur; Table II, 4 WAT, 5.6 kg/h | Wheat; 4 WAT, 0.28 kg/h | Barnyardgrass; Table I, 4 WAT, 5.6 kg/h | Barnyardgrass; Table I, 4 WAT, 11.2 kg/h | Barnyardgrass; Table II, 4 WAT, 0.28 kg/h | Barnyardgrass; Table II, 4 WAT, 1.12 kg/h | Barnyardgrass; Table II, 4 WAT, 5.6 kg/h | Panicum Spp; 4 WAT, 0.28 kg/h | Hemp Sesbania; 4 WAT, 5.6 kg/h | Smartweed; Table II, 4 WAT, 0.28 kg/h | Smartweed; Table II, 4 WAT, 5.6 kg/h | Crabgrass; 1.12 kg/h | Lambsquarters; Table I, 4 WAT, 5.6 kg/h | Lambsquarters; Table I, 4 WAT, 11.2 kg/h | Lambsquarters; Table II, 4 WAT, 5.6 kg/h | Soybean; 4 WAT, 5.6 kg/h
0 (0-24% control): Sugar Beet; 2 WAT, 0.01 kg/h | Sugar Beet; 2 WAT, 0.06 kg/h | Downy Brome; Table I, 4 WAT, 5.6 kg/h | Downy Brome; Table I, 4 WAT, 11.2 kg/h | Downy Brome; Table II, 2 WAT, 0.01 kg/h | Downy Brome; Table II, 2 WAT, 0.06 kg/h | Sorghum; 2 WAT, 0.01 kg/h | Sorghum; 2 WAT, 0.06 kg/h | Yellow Nutsedge; 5.6 kg/h | Rice; 2 WAT, 0.01 kg/h | Rice; 2 WAT, 0.06 kg/h | Johnsongrass; 11.2 kg/h | Cocklebur; Table II, 2 WAT, 0.01 kg/h | Cocklebur; Table II, 2 WAT, 0.06 kg/h | Velvetleaf; Table II, 2 WAT, 0.01 kg/h | Velvetleaf; Table II, 2 WAT, 0.06 kg/h | Wheat; 2 WAT, 0.01 kg/h | Wheat; 2 WAT, 0.06 kg/h | Wild Buckwheat; 2 WAT, 0.01 kg/h | Wild Buckwheat; 2 WAT, 0.06 kg/h | Barnyardgrass; Table II, 2 WAT, 0.01 kg/h | Barnyardgrass; Table II, 2 WAT, 0.06 kg/h | Panicum Spp; 2 WAT, 0.01 kg/h | Panicum Spp; 2 WAT, 0.06 kg/h | Hemp Sesbania; 2 WAT, 0.01 kg/h | Hemp Sesbania; 2 WAT, 0.06 kg/h | Morningglory; Table II, 2 WAT, 0.01 kg/h | Morningglory; Table II, 2 WAT, 0.06 kg/h | Smartweed; Table II, 2 WAT, 0.01 kg/h | Smartweed; Table II, 2 WAT, 0.06 kg/h | Lambsquarters; Table II, 2 WAT, 0.01 kg/h | Lambsquarters; Table II, 2 WAT, 0.06 kg/h | Soybean; 2 WAT, 0.01 kg/h | Soybean; 2 WAT, 0.06 kg/h
2 (50-74% control): Sugar Beet; 4 WAT, 0.28 kg/h | Sugar Beet; 4 WAT, 1.12 kg/h | Sorghum; 4 WAT, 0.28 kg/h | Sorghum; 4 WAT, 1.12 kg/h | Yellow Nutsedge; 11.2 kg/h | Canada Thistle; 11.2 kg/h | Johnsongrass; 5.6 kg/h | Cocklebur; Table I, 4 WAT, 5.6 kg/h | Cocklebur; Table I, 4 WAT, 11.2 kg/h | Cocklebur; Table II, 4 WAT, 0.28 kg/h | Cocklebur; Table II, 4 WAT, 1.12 kg/h | Velvetleaf; Table I, 4 WAT, 11.2 kg/h | Wheat; 4 WAT, 1.12 kg/h | Wild Buckwheat; 4 WAT, 0.28 kg/h | Wild Buckwheat; 4 WAT, 1.12 kg/h | Wild Buckwheat; 4 WAT, 5.6 kg/h | Hemp Sesbania; 4 WAT, 1.12 kg/h | Morningglory; Table I, 4 WAT, 5.6 kg/h | Morningglory; Table I, 4 WAT, 11.2 kg/h | Morningglory; Table II, 4 WAT, 0.28 kg/h | Morningglory; Table II, 4 WAT, 1.12 kg/h | Morningglory; Table II, 4 WAT, 5.6 kg/h | Smartweed; Table I, 4 WAT, 5.6 kg/h | Smartweed; Table I, 4 WAT, 11.2 kg/h | Smartweed; Table II, 4 WAT, 1.12 kg/h | Lambsquarters; Table II, 4 WAT, 1.12 kg/h | Soybean; 4 WAT, 0.28 kg/h | Soybean; 4 WAT, 1.12 kg/h
4 (100% control): Wheat; 4 WAT, 5.6 kg/h | Panicum Spp; 4 WAT, 1.12 kg/h | Panicum Spp; 4 WAT, 5.6 kg/h | Crabgrass; 5.6 kg/h
